Test: mn = molality of the nth substance listed, in mol/kg
Conditions: for electrical conductivity: 100 kPa, Liquid, CyberScan CON1500 Bench Conductivity Meter; for surface tension liquid-gas: 298.2 K, Ring tensiometer

CCCCCCCCCCCCn1cc[n+](C)c1.[Br-] [1-dodecyl-3-methylimidazolium bromide] + O
electrical conductivity [S/m]
Conditions | 288.15 K | 293.15 K | 298.15 K | 303.15 K
m1 = 0.001 | 0.00769 | 0.00898 | 0.01 | 0.0112
m1 = 0.002 | 0.0157 | 0.0181 | 0.0198 | 0.0223
m1 = 0.003 | 0.0224 | 0.0261 | 0.029 | 0.032
m1 = 0.004 | 0.0302 | 0.0345 | 0.0386 | 0.0427
m1 = 0.005 | 0.0379 | 0.043 | 0.048 | 0.0519
m1 = 0.006 | 0.0445 | 0.0504 | 0.0563 | 0.0626
m1 = 0.007 | 0.052 | 0.0589 | 0.0655 | 0.0728
m1 = 0.008 | 0.0589 | 0.0664 | 0.0741 | 0.0824
m1 = 0.009 | 0.0657 | 0.074 | 0.0823 | 0.0916
m1 = 0.01 | 0.0717 | 0.0814 | 0.0909 | 0.101
m1 = 0.011 | 0.0758 | 0.0853 | 0.0963 | 0.107
m1 = 0.012 | 0.0776 | 0.0876 | 0.0986 | 0.111
m1 = 0.013 | 0.0799 | 0.0907 | 0.102 | 0.116
m1 = 0.014 | 0.0814 | 0.0922 | 0.104 | 0.118
m1 = 0.015 | 0.0837 | 0.0947 | 0.107 | 0.122
m1 = 0.016 | 0.0854 | 0.0966 | 0.11 | 0.124
m1 = 0.017 | 0.0874 | 0.0986 | 0.112 | 0.127
m1 = 0.018 | 0.0882 | 0.0998 | 0.113 | 0.129
m1 = 0.019 | 0.0893 | 0.101 | 0.115 | 0.131
m1 = 0.02 | 0.0913 | 0.104 | 0.118 | 0.134
m1 = 0.021 | 0.0923 | 0.106 | 0.12 | 0.136
m1 = 0.022 | 0.0935 | 0.107 | 0.122 | 0.139
m1 = 0.023 | 0.0948 | 0.109 | 0.125 | 0.141
m1 = 0.024 | 0.0964 | 0.111 | 0.127 | 0.144
m1 = 0.025 | 0.0985 | 0.112 | 0.129 | 0.146

Conditions | surface tension liquid-gas [mN/m]
m1 = 0.0005 | 68.38
m1 = 0.001 | 62.44
m1 = 0.002 | 58.12
m1 = 0.004 | 51.39
m1 = 0.006 | 43.7
m1 = 0.008 | 40.35
m1 = 0.01 | 36.83
m1 = 0.012 | 36.51
m1 = 0.014 | 36.56
m1 = 0.016 | 36.65
m1 = 0.018 | 36.6
m1 = 0.02 | 36.57
m1 = 0.025 | 36.54
m1 = 0.03 | 36.48
m1 = 0.04 | 36.67
m1 = 0.05 | 36.67

CCCCCCCCCCCC[n+]1ccn(C)c1.[Cl-] [1-dodecyl-3-methylimidazolium chloride] + O
electrical conductivity [S/m]
Conditions | 288.15 K | 293.15 K | 298.15 K | 303.15 K
m1 = 0.001 | 0.00787 | 0.00877 | 0.00992 | 0.0109
m1 = 0.002 | 0.0149 | 0.0166 | 0.0187 | 0.0207
m1 = 0.003 | 0.0219 | 0.0245 | 0.0273 | 0.0304
m1 = 0.004 | 0.0289 | 0.0324 | 0.0367 | 0.0408
m1 = 0.005 | 0.0355 | 0.0401 | 0.0448 | 0.0503
m1 = 0.006 | 0.0433 | 0.0481 | 0.054 | 0.0598
m1 = 0.007 | 0.0491 | 0.0548 | 0.0617 | 0.0687
m1 = 0.008 | 0.0562 | 0.0637 | 0.071 | 0.0787
m1 = 0.009 | 0.0633 | 0.0711 | 0.0795 | 0.0885
m1 = 0.01 | 0.0688 | 0.0778 | 0.0871 | 0.0961
m1 = 0.011 | 0.0764 | 0.0861 | 0.0964 | 0.107
m1 = 0.012 | 0.0832 | 0.0934 | 0.105 | 0.117
m1 = 0.013 | 0.0886 | 0.0991 | 0.112 | 0.124
m1 = 0.014 | 0.095 | 0.106 | 0.118 | 0.132
m1 = 0.015 | 0.1 | 0.112 | 0.126 | 0.14
m1 = 0.016 | 0.105 | 0.117 | 0.131 | 0.145
m1 = 0.017 | 0.107 | 0.12 | 0.136 | 0.15
m1 = 0.018 | 0.111 | 0.125 | 0.14 | 0.155
m1 = 0.019 | 0.115 | 0.129 | 0.144 | 0.16
m1 = 0.02 | 0.117 | 0.132 | 0.146 | 0.165
m1 = 0.021 | 0.12 | 0.135 | 0.15 | 0.169
m1 = 0.022 | 0.122 | 0.137 | 0.154 | 0.173
m1 = 0.023 | 0.125 | 0.141 | 0.158 | 0.178
m1 = 0.024 | 0.128 | 0.144 | 0.162 | 0.181
m1 = 0.025 | 0.131 | 0.147 | 0.166 | 0.185

Conditions | surface tension liquid-gas [mN/m]
m1 = 0.001 | 69.37
m1 = 0.002 | 63.46
m1 = 0.004 | 58.36
m1 = 0.006 | 53.85
m1 = 0.01 | 47.71
m1 = 0.014 | 43.05
m1 = 0.018 | 38.43
m1 = 0.02 | 38.26
m1 = 0.025 | 38.38
m1 = 0.03 | 38.61
m1 = 0.04 | 38.35
m1 = 0.05 | 38.55

CCCCCCCCCCCCn1cc[n+](C)c1.[I-] [1-dodecyl-3-methylimidazolium iodide] + O
electrical conductivity [S/m]
Conditions | 288.15 K | 293.15 K | 298.15 K | 303.15 K
m1 = 0.0005 | 0.00423 | 0.00497 | 0.00565 | 0.00618
m1 = 0.001 | 0.00828 | 0.00961 | 0.0108 | 0.0118
m1 = 0.002 | 0.0151 | 0.017 | 0.0191 | 0.0211
m1 = 0.003 | 0.0227 | 0.0255 | 0.0287 | 0.0316
m1 = 0.004 | 0.0292 | 0.0332 | 0.0373 | 0.0413
m1 = 0.005 | 0.0334 | 0.0388 | 0.0452 | 0.0506
m1 = 0.006 | 0.036 | 0.0418 | 0.0483 | 0.0552
m1 = 0.007 | 0.0368 | 0.0432 | 0.05 | 0.0579
m1 = 0.008 | 0.0378 | 0.0444 | 0.0516 | 0.0595
m1 = 0.009 | 0.0393 | 0.0459 | 0.0532 | 0.0614
m1 = 0.01 | 0.04 | 0.047 | 0.0543 | 0.0634
m1 = 0.011 | 0.0412 | 0.0485 | 0.0558 | 0.0653
m1 = 0.012 | 0.042 | 0.0502 | 0.0576 | 0.0672
m1 = 0.013 | 0.0425 | 0.0508 | 0.0589 | 0.0687
m1 = 0.014 | 0.0441 | 0.0519 | 0.06 | 0.0699
m1 = 0.015 | 0.0448 | 0.0535 | 0.0616 | 0.0712
m1 = 0.016 | 0.0458 | 0.0542 | 0.0631 | 0.0728
m1 = 0.017 | 0.0471 | 0.0556 | 0.0645 | 0.0739
m1 = 0.018 | 0.0483 | 0.0568 | 0.066 | 0.0758
m1 = 0.019 | 0.0489 | 0.0574 | 0.0667 | 0.0774
m1 = 0.02 | 0.0496 | 0.0582 | 0.0677 | 0.0784

Conditions | surface tension liquid-gas [mN/m]
m1 = 0.0001 | 69.81
m1 = 0.0005 | 65.15
m1 = 0.001 | 56.7
m1 = 0.002 | 46.92
m1 = 0.003 | 38.08
m1 = 0.004 | 33.49
m1 = 0.005 | 31.45
m1 = 0.006 | 31.48
m1 = 0.007 | 31.39
m1 = 0.009 | 31.5
m1 = 0.012 | 31.6
m1 = 0.016 | 31.57
m1 = 0.02 | 31.66

Reference: the NIST ThermoML archive (doi:10.1021/je301147k)
